Results taken from patent US4552874A, “Pyrazolooxazines, pyrazolothiazines, and pryazoloquinolines and their use as medicaments” (Bayer Aktiengesellschaft, priority 1982, dated 1985).

What was measured:
[1] = target: T1, Lipoxygenase in platelet (Homo sapiens, UniProt P18054); experiment: Inhibition of lipoxygenase in washed human platelets (HETE synthesis from radioactively labelled arachidonic acid); format: cell-based; details: in vitro
T1 construct: the metabolism of radioactively labelled arachidonic acid on washed human platelets is used; endogenous in cells; host or cells: washed human platelets
T1 sequence (P18054 1-663): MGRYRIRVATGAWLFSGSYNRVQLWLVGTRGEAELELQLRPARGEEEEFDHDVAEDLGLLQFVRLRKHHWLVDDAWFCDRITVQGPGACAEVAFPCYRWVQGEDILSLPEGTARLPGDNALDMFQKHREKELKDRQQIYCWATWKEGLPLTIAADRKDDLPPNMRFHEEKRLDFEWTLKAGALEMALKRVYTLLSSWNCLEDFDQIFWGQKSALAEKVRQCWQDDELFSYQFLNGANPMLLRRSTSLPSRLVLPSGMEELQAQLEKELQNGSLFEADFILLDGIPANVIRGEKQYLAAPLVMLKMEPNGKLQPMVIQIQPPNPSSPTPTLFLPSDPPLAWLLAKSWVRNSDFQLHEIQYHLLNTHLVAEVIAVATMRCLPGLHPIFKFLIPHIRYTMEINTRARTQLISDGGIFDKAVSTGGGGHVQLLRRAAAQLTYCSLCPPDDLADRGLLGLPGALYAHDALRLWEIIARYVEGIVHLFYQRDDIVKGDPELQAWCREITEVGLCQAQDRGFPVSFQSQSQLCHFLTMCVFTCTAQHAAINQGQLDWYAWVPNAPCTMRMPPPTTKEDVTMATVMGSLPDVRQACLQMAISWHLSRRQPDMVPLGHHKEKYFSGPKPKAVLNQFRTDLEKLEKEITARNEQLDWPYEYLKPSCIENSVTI
Experimental: In this test method, the metabolism of radioactively labelled arachidonic acid on washed human platelets is used. In this in vitro test, the radioactively labelled metabolites are extracted from the reaction mixture and separated by thin-layer chromatography. The autoradiogram is evaluated on a thin-layer scanner. Under these test conditions, the labelled metabolites are separated from the unreacted arachidonic acid and can then be evaluated quantitatively. The distribution of radioactivity over the products of cyclooxygenase formed during the metabolism, thromboxane B2 (TXB2) and 12-hydroxy-5,8,10-heptadecatrienoic acid (HHT) and the product of lipoxygenase, 12-hydroxy-5,8,11,14-eicosatetraenoic acid (HETE), under the influence of the inhibitors provides a measure of the inhibition of the enzymes.
The inhibition of lipoxygenase by the compounds according to the invention can be measured by the inhibition of synthesis of HETE. It emerges that the synthesis of TXB2 and of HHT remains unaffected, whilst the conversion of arachidonic acid decreases. […] (Compare Table 1).

[2] = tested on: Lipoxygenase in PMN Leucocytes; experiment: Inhibition of lipoxygenase in PMN leucocytes (liberation of 5-HETE and leukotriene B4); format: cell-based, humans and rabbits; details: in vitro
Experimental: The polymorphonuclear leucocytes of humans and of rabbits metabolise arachidonic acid to 5-hydroxy-5,8,11,14-eicosatetraenoic acid (5-HETE) and leukotriene B4 (5S, 12R-dihydroxy-6 cis, 8,10-trans-14 cis-eicosatetraenoic acid). The inhibition of the liberation of 5-HETE and leukotriene B4 from the leucocytes provides a measure of the lipoxygenase-inhibitory effect of the compounds according to the invention. (Compare Table 1).
The test with human leucocytes is carried out by the method of Borgeat and Samuelsson (j. Biol. Chem. 254; 2643, 1979 and Proc. Natl. Acad. Sci. USA, 76, 2148 (1979), and with rabbit leucocytes by the method of Walker and Parish (Inter. Archs. Allergy appl. Immun. 66, 83, 1981).

[3] = systemic administration (for example orally); cited from earlier work
[4] = tested on: cyclooxygenase; details: cited from earlier work
[5] = tested on: prostacyclin synthesis in strips of rabbit aorta; experiment: Stimulation of prostacyclin synthesis in strips of rabbit aorta; format: cell-based; details: Oryctolagus cuniculus, 1 h, read-out: Stimulation in % compared to control (prostacyclin synthesis); for activation at 2 µg/mL: 2.10^6 g/ml of substance
[6] = tested on: melanoma B 16; experiment: Inhibition of the initiation of pulmonary metastases in melanoma B 16; format: in vivo; details: melanoma B 16, mouse, three i.p. administrations of 1 mg/kg
Excerpt: The compounds according to the invention are also active in vivo. […] The compounds according to the invention also reduce the formation of oedema in the model of carrageenan inflammation, (compare Table 3) and inhibit the formation of metastases from B-16 melanoma (method of Honn, et. al. Science 212, 1270, 1981).

SMILES | Minimum concentration (g/ml) for inhibition of Lipoxygenase in platelet [1] | Minimum concentration (g/ml) for inhibition of Lipoxygenase in PMN Leucocytes [2] | further results
Cn1ncc2c1Nc1cc(Cl)ccc1O2 | 10^-6 g/ml | 10^-6 g/ml | 
Cc1ccc2c(c1)Nc1[nH]ncc1S2 | 10^-6 g/ml | 10^-6 g/ml | 
NC1=NN(c2cccc(C(F)(F)F)c2)CC1 [3-amino-1-(m-trifluoromethylphenyl)-2-pyrazoline] |  |  | toxic side effects, in words [3]: toxic side effects on systemic administration (for example orally); action of known lipoxygenase inhibitors, in words [4]: either also act as inhibitors of cyclooxygenase or only act at very high concentrations
CCCCCC#CCC#CCC#CCC#CCCCC(=O)O [5,8,11,14-eicosatetraynoic acid] |  |  | action of known lipoxygenase inhibitors, in words [4]: either also act as inhibitors of cyclooxygenase or only act at very high concentrations
c1ccc2c(c1)Nc1[nH]ncc1S2 [Compound 12] |  |  | activation at 2 µg/mL [5]: 80%
c1cnc2c(c1)Oc1cn[nH]c1N2 [Compound 17] |  |  | activation at 2 µg/mL [5]: 200%
c1ccc2cc3c(cc2c1)Nc1[nH]ncc1O3 [Compound 18] |  |  | % Inhibition of the initiation of pulmonary metastases [6]: 36%
Cn1ncc2c1Nc1cc3ccccc3cc1O2 [Compound 19] |  |  | % Inhibition of the initiation of pulmonary metastases [6]: 30%
CN1c2ccccc2Oc2cnn(C)c21 [Compound 24] |  |  | activation at 10 µg/mL ([5]; at 10^-5 g/ml substance concentration): 100%
Clc1ccc2c(c1)Nc1[nH]ncc1O2 [drawing 13] | 10^-6 g/ml | 10^-6 g/ml | 
Cc1ccc2c(c1)Nc1[nH]ncc1O2 [drawing 14] | 10^-6 g/ml | 10^-6 g/ml | 
c1ccc2cc3c(cc2c1)Nc1[nH]ncc1O3 [drawing 29] | 10^-6 g/ml | 10^-6 g/ml | 
CC(Cc1ccc(O)c(O)c1)C(C)Cc1ccc(O)c(O)c1 (centres unmarked) [nordihydroguaiaretic acid] |  |  | action of known lipoxygenase inhibitors, in words [4]: either also act as inhibitors of cyclooxygenase or only act at very high concentrations
O=C1CCN(c2ccccc2)N1 [phenidone] |  |  | action of known lipoxygenase inhibitors, in words [4]: either also act as inhibitors of cyclooxygenase or only act at very high concentrations
